Data published in PMC6628362, “A New Strategy for Glioblastoma Treatment: In Vitro and In Vivo Preclinical Characterization of Si306, a Pyrazolo[3,4-d]Pyrimidine Dual Src/P-Glycoprotein Inhibitor” (Cancers, 2019).
Values joined by “and” are separate entries in the source; they are usually repeats but may differ in a detail not shown here. Equal entries are not always repeated. Marks after values point to notes of the source that are not given here. Each block holds one compound with its values, some of them ahead of it.

Tests used:
MCF-7/Adr [1] = tested on: MCF-7/Adr; set-up: method as in PMID 25482933; settings: read-out: IC50 cell growth; cited from earlier work
U87-TxR = experiment: MTT cell growth inhibition, MDR U87-TxR; type: cell-based, Human; settings: 72 h, n = 3
Method: (§1) Human GBM cell lines U87 and LN-229 were purchased from the American Type Culture Collection, Rockville, MD, USA. U87-TxR cells were selected from U87 cells by continuous exposure to increasing concentrations of PTX [76]. LN-299, U87 and U87-TxR cells were grown in Minimum Essential Medium with 10% fetal bovine serum, 2 mM L-glutamine and 5000 U/mL penicillin, 5 mg/mL streptomycin solution. Cell lines were maintained at 37 °C in a humidified 5% CO2 atmosphere. They were sub-cultured at 72 h intervals using 0.25% trypsin/EDTA and 16,000 cells/cm^2 were seeded into a fresh medium.
(§2) MTT assay was used to assess the viability of U87 and U87-TxR cells (AppliChem GmbH, Taufkirchen, Germany). After reaching the confluence in 25 cm^2 tissue flasks, U87 and U87-TxR cells were trypsinized. Cells were seeded at the optimal density determined in initial experiments: 4000 cell/well into flat-bottomed 96-well tissue culture plates. Following the overnight incubation, cells were treated with Si306, pro-Si306 and dasatinib (1–25 µM) for 72 h. In addition, the combined effects of Si306 and pro-Si306 with PTX were evaluated in MDR GBM cells. To that end, two concentrations of Si306 and pro-Si306 (0.2 μM and 0.5 μM) were combined with increasing concentrations of PTX (0.1–2 μM) in simultaneous treatment. The sensitization of U87-TxR cells to PTX was studied after 72 h. Briefly, MTT was added to each well in a final concentration of 0.2 mg/mL for 4 h to induce the formation of the formazan in cells with intact/viable mitochondria. Then, produced formazan was dissolved in DMSO, and the absorbance was measured at 540 nm on a microplate reader (LKB 5060-006 Micro Plate Reader, Vienna, Austria). IC50 values were calculated by nonlinear regression analysis using GraphPad Prism 6.0 for Windows (GraphPad Software, La Jolla, CA, USA).

P-gp [2] = experiment: Flow-cytometric analysis of P-glycoprotein expression in U87-TxR cells; type: cell-based, Human; settings: 5 µM, 72 h, flow cytometry
Method: To assess the P-glycoprotein expression level in MDR GBM cells, flow-cytometry was employed. U87-TxR cells seeded in adherent 6-well plates were treated with 5 µM Si306, pro-Si306 or dasatinib for 72 h. Then, cells were collected by trypsinization, washed in PBS, and then directly immuno-stained by FITC-conjugated anti-P-gp antibody (BD Biosciences, Winnersh, Berkshire, UK). To discriminate the level of background fluorescence, an isotype control IgG2bκ (Abcam, Cambridge, United Kingdom) was used. The fluorescence of FITC-conjugated anti-P-gp was analyzed on assessed on the fluorescence channel 1 (FL1) of the CyFlow Space Partec flow-cytometer (Sysmex Partec GmbH, Görlitz, Germany). After gating to exclude the cell debris and dead cells, a minimum of 10,000 cells per sample was assayed. Summit Dako Software was used for the analyses of results obtained by flow-cytometry.

U87 = experiment: MTT cell growth inhibition, U87; type: cell-based, Human; settings: 72 h, n = 3
Method: as §1, §2

MCF-7/Adr [3] = tested on: MCF-7/Adr; set-up: method as in PMID 25482933; settings: 0.5 μM dasatinib, 72 h; cited from earlier work
LN-229 = experiment: MTT cell growth inhibition, LN-229; type: cell-based, Human; settings: LN-229, MTT, n = 3
[4] = set-up: method as in PMID 17429625; settings: mice; cited from earlier work
P-gp [5] = biological target: P-gp (Homo sapiens, UniProt P08183); experiment: Rho 123 accumulation assay (P-gp inhibition) in U87-TxR cells; settings: 30 min; for P-gp activity (Rho 123 intracellular accumulation): 5 µM; for IC50: IC50 of P-gp inhibition, Rho 123 accumulation
Method: At the end of the accumulation period, the cells were pelleted by centrifugation, washed with PBS and placed in cold PBS. The samples were kept on ice in a dark setting until the analysis on CyFlow Space Partec flow-cytometer (Sysmex Partec GmbH, Germany). […] A minimum of 10,000 events was assayed for each sample and the obtained results were analyzed using Summit Dako Software (ver. 4.3, Fort Collins, CO, USA).

U87-TxR cells = experiment: Reversal of paclitaxel resistance, MTT combination treatment; type: cell-based, Human; settings: 72 h
Method: as §2

[6] = set-up: method as in PMID 28650650; settings: pro-Si306 administrated p.o.; cited from earlier work
BT-138 = experiment: Cell viability, BT-138 (Table S1); type: cell-based; settings: BT-138, 24 h
Method: 1. Cell Growth Inhibition by Dasatinib, Si306 and Pro-Si306
GB cell lines BT138, T98G and A172 were treated with Si306 and pro-Si306 at concentrations ranging from 1 to 100 µM, or with DMSO as a control. Cell viability was evaluated 72 h after treatment for T98G and A172 cell lines and after 24 h for BT-138. In table S1 the IC50 values are reported.
Table S1. Sensitivity of glioblastoma multiforme (GBM) cells to Si306 and pro-Si306 expressed as IC50 […]
Figure S1. Rho 123 accumulation in U87-TxR cells treated with increasing concentrations of TQ (A), Dex-VER (B), Si306 (C) and pro-Si306 (D).
(1 picture or pasted object on this page, not shown here)

[7] = biological target: Human Serum Albumin (HSA) (Homo sapiens, UniProt P02768); experiment: Binding fluorimetric assay, HSA; type: in vitro ADME; settings: 10 µM HSA, fluorescence quenching
Method: (§3) In order to determine the binding affinity for Si306 and pro-Si306 to HSA (human serum albumin) and AGP (alpha-1-acid glycoprotein), the protein fluorescence has been monitored by spectroscopy. The quantitative analysis was performed using black 96 multiwell plates: in each well, a fixed concentration of HSA or AGP (10 µM in phosphate buffer 1 mM) was added with different amounts of the tested compound (0.1 µM to 500 µM). Plates were gently shacked and after 30 min at room temperature for equilibration, spectra were recorded from 300 to 400 nm, after excitation at 295 nm, by using a Perkin Elmer EnVision Multilabel Reader 2014 spectrofluorimeter. Finally, spectra were acquired with EnVision Manager ver.1.13 software (Walthman, MA, USA). The obtained non fluorescence quenching percentages were plotted against drug concentrations and the relative KD values were calculated using GraphPad software (version 6.0).

[8] = tested on: Alpha-1-acid glycoprotein (AGP); experiment: Binding fluorimetric assay, AGP; type: in vitro ADME; settings: 10 µM AGP, fluorescence quenching
Method: as §3

[9] = set-up: method as in PMID 28650650; settings: cited from earlier work
CYP3A4 = biological target: T1, CYP3A4 (Homo sapiens, UniProt P08684); experiment: CYP3A4 inhibition in human liver microsomes (testosterone 6β-hydroxylation); type: in vitro ADME
T1 construct: Incubations were carried out in a mix containing human liver microsomes (1 mg/mL of protein); from tissue; host or cells: human liver microsomes
Method: The inhibition of cytochrome P450 3A4 isoform by Si306 and pro-Si306 was measured by determining its activity on the substrate testosterone.
The activity of CYP3A4 was evaluated by measuring the 6β-hydroxylated testosterone formation (CYP3A4-specific reaction). The amount of 6β-hydroxylated metabolite was assessed in the absence and presence of Si306, pro-Si306 and ketoconazole (testosterone concentration of 100 μM in phosphate buffer 0.025 M, pH 7.4). […] Ketoconazole was used as standard selective inhibitor of CYP3A4 isoenzyme. Incubations were carried out in a mix containing human liver microsomes (1 mg/mL of protein) in phosphate buffer 0.025 M, pH 7.4, NADPH (200 μM) previously solubilized in a MgCl2 48 mM solution. The final incubation volume was 0.25 mL. After a 40 min-incubation period at 37 °C, the reaction was stopped by adding 1 mL of acetonitrile in the presence of corticosterone 2 μM as internal standard. The samples were centrifuged for 20 min at 5000 rpm. Concentrations of testosterone and its metabolite 6β-hydroxytestosterone were assessed by the HPLC method with UV detection. Calibration curve for quantitative analysis of 6β-hydroxytestosterone in the samples was obtained using commercial 6β-hydroxytestosterone purchased from Sigma Aldrich. For the statistical analysis, GraphPad InStat 3.0 (GraphPad Software, San Diego, CA, USA) was used.

Sequence of P-gp (Homo sapiens, UniProt P08183) (P08183 whole entry): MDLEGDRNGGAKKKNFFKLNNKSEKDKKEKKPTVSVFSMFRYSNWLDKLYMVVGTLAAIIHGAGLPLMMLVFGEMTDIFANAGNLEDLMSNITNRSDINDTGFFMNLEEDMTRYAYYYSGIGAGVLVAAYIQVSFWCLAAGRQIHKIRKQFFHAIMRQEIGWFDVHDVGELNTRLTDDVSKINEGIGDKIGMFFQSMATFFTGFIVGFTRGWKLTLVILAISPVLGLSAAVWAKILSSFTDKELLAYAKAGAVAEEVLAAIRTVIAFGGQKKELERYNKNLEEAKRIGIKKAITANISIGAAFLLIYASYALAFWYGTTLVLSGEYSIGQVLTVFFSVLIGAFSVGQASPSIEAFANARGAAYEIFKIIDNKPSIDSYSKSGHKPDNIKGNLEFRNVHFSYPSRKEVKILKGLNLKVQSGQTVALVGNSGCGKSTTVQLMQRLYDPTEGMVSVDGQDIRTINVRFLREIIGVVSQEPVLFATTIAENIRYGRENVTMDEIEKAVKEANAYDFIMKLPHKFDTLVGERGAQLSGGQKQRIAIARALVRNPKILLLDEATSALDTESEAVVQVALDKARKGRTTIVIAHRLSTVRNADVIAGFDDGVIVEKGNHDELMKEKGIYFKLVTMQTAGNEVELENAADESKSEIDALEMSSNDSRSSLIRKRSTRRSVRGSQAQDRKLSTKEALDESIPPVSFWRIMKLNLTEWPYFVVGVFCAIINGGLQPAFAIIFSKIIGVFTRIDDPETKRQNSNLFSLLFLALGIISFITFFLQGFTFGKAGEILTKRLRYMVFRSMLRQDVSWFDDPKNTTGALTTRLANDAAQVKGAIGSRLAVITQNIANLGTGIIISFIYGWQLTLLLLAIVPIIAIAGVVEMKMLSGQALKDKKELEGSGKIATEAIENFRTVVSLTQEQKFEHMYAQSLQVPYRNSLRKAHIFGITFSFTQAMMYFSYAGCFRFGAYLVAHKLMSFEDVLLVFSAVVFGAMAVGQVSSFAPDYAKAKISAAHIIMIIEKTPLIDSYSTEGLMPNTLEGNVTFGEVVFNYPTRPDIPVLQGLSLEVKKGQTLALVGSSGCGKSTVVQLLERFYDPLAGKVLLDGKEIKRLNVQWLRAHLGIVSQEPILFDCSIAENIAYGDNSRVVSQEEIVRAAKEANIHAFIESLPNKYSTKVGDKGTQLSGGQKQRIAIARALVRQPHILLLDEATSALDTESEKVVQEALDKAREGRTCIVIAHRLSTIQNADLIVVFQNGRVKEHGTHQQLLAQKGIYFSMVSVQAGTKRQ
Sequence of Human Serum Albumin (HSA) (P02768 25-609): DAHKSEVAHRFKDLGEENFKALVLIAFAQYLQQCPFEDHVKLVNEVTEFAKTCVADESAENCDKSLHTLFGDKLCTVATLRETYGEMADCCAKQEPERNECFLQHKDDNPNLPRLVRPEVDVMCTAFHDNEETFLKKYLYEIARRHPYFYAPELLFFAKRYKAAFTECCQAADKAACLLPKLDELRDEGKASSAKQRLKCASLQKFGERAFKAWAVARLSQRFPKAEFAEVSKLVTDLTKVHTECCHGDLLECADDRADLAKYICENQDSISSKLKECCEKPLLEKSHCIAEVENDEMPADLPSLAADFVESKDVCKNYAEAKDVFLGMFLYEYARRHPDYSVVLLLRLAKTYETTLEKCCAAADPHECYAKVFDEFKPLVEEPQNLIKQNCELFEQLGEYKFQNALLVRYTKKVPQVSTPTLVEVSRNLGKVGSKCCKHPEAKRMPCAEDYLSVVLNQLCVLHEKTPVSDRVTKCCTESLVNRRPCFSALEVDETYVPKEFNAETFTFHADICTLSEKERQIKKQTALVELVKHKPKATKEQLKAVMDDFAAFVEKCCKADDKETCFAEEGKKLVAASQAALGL
T1 sequence (P08684 whole entry): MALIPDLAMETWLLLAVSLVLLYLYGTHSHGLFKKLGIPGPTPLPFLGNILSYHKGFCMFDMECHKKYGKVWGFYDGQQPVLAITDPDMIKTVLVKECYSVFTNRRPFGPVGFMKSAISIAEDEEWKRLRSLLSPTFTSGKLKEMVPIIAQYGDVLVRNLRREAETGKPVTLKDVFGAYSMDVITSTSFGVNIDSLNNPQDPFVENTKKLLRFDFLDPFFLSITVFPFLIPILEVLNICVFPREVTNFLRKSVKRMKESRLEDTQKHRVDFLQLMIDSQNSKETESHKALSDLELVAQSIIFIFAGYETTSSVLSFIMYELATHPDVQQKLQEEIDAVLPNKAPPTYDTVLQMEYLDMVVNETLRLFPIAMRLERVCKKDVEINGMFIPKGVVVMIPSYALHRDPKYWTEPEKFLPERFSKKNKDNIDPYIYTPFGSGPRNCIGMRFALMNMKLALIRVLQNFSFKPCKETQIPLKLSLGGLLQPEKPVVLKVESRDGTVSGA

Structure (SMILES): Cc1nc(Nc2ncc(C(=O)Nc3c(C)cccc3Cl)s2)cc(N2CCN(CCO)CC2)n1 [Dasatinib, dasatinib, reference compound]
- IC50 (MCF-7/Adr [1]): 40 µM
- IC50 (U87-TxR): 8.52 ± 0.691 µM
- IC50 (U87-TxR; Homo sapiens, U87-TxR): 8.5 µM
- P-gp expression (P-gp [2]): increased P-gp expression
- IC50 (U87): 6.14 ± 0.464 µM
- IC50 (U87; Homo sapiens, U-87 MG): 6.1 µM
- reversal of doxorubicin resistance (MCF-7/Adr [3]): 3.35 fold
- IC50 (LN-229; Homo sapiens, LN-229, 72 h): 24.7 µM
- IC50 (LN-229; 72 h): 24.7 ± 1.03 µM
- oral bioavailability [4]: 14%
- P-gp activity (Rho 123 intracellular accumulation) (P-gp [5]): did not show a similar activity

- IC50 (U87-TxR cells; Homo sapiens, PTX alone, read-out: IC50 ± S.D. for PXT): 2.84 ± 0.358 µM
Structure (SMILES): CC(=O)O[C@H]1C(=O)[C@@]2(C)[C@H]([C@H](OC(=O)c3ccccc3)[C@]3(O)C[C@H](OC(=O)[C@H](O)[C@@H](NC(=O)c4ccccc4)c4ccccc4)C(C)=C1C3(C)C)[C@]1(OC(C)=O)CO[C@@H]1C[C@@H]2O [PTX, paclitaxel, reference compound]

- IC50 (P-gp [5]; TQ values in nM (footnote a)): < 1 nM
Structure (SMILES): COc1cc2c(cc1OC)CN(CCc1ccc(NC(=O)c3cc(OC)c(OC)cc3NC(=O)c3cnc4ccccc4c3)cc1)CC2 [TQ, tariquidar, reference compound]

- IC50 (U87-TxR; Homo sapiens, U87-TxR): 3.42 ± 0.359 µM
- IC50 (U87): 3.04 ± 0.343 µM
- IC50 (U87; Homo sapiens, U-87 MG): ~3 µM
- IC50 (BT-138): 30.7 ± 4.75 µM
- BMAX [7]: 78.00 ± 4.2
- Kd [7]: 21.4 ± 4.5 µM
- BMAX [8]: 96.69 ± 1.5
- Kd at 30 min ([8]; alpha-1-acid glycoprotein (10 µM) in phosphate buffer): 9.28 ± 0.7 µM
- inhibition at 40 min (CYP3A4; pH 7.4, probe testosterone 100 μM (6β-hydroxylation), at a lower concentration (1–50 μM range)): -15%
- interaction with CYP3A4 (CYP3A4; up to 50 μM): do not interact with CYP3A4
- P-gp activity (Rho 123 intracellular accumulation) (P-gp [5]): significant suppression of P-gp activity
- IC50 (P-gp [5]): 3800 nM and 3750 nM
Structure (SMILES): CN1CCN(CCOC(=O)N(c2cccc(Br)c2)c2nc(SCCN3CCOCC3)nc3c2cnn3CC(Cl)c2ccccc2)CC1 (stereo not shown) [pro-Si306]
- detection in plasma and brain [6]: detected neither into the plasma nor in the brain
- Relative Reversal of PTX resistance (U87-TxR cells; 0.2 µM of the compound): 4.47 ***
- Relative Reversal of PTX resistance (U87-TxR cells; 0.5 µM of the compound): 7.98
- Relative Reversal of PTX resistance (U87-TxR cells; 0.5 µM of the compound, listed as Pro-Si306): 7.98 ***
- IC50 (LN-229; Homo sapiens, LN-229, 72 h): 3.07 ± 0.272 µM
- solubility [9]: enhanced solubility
